Results as given in paper PMC6814258 (Pharmaceutical research, 2019).
Structures can show the parent of a compound that is named as a salt.

Target: Nav1.8 (Homo sapiens, UniProt Q9Y5Y9)
Assay: Nav1.8 FLIPR HTS
Type: cell-based
Details: HEK293, read-out: Average percent inhibition at 10 μM (Nav1.8)

Sequence of Nav1.8 (Q9Y5Y9 whole entry): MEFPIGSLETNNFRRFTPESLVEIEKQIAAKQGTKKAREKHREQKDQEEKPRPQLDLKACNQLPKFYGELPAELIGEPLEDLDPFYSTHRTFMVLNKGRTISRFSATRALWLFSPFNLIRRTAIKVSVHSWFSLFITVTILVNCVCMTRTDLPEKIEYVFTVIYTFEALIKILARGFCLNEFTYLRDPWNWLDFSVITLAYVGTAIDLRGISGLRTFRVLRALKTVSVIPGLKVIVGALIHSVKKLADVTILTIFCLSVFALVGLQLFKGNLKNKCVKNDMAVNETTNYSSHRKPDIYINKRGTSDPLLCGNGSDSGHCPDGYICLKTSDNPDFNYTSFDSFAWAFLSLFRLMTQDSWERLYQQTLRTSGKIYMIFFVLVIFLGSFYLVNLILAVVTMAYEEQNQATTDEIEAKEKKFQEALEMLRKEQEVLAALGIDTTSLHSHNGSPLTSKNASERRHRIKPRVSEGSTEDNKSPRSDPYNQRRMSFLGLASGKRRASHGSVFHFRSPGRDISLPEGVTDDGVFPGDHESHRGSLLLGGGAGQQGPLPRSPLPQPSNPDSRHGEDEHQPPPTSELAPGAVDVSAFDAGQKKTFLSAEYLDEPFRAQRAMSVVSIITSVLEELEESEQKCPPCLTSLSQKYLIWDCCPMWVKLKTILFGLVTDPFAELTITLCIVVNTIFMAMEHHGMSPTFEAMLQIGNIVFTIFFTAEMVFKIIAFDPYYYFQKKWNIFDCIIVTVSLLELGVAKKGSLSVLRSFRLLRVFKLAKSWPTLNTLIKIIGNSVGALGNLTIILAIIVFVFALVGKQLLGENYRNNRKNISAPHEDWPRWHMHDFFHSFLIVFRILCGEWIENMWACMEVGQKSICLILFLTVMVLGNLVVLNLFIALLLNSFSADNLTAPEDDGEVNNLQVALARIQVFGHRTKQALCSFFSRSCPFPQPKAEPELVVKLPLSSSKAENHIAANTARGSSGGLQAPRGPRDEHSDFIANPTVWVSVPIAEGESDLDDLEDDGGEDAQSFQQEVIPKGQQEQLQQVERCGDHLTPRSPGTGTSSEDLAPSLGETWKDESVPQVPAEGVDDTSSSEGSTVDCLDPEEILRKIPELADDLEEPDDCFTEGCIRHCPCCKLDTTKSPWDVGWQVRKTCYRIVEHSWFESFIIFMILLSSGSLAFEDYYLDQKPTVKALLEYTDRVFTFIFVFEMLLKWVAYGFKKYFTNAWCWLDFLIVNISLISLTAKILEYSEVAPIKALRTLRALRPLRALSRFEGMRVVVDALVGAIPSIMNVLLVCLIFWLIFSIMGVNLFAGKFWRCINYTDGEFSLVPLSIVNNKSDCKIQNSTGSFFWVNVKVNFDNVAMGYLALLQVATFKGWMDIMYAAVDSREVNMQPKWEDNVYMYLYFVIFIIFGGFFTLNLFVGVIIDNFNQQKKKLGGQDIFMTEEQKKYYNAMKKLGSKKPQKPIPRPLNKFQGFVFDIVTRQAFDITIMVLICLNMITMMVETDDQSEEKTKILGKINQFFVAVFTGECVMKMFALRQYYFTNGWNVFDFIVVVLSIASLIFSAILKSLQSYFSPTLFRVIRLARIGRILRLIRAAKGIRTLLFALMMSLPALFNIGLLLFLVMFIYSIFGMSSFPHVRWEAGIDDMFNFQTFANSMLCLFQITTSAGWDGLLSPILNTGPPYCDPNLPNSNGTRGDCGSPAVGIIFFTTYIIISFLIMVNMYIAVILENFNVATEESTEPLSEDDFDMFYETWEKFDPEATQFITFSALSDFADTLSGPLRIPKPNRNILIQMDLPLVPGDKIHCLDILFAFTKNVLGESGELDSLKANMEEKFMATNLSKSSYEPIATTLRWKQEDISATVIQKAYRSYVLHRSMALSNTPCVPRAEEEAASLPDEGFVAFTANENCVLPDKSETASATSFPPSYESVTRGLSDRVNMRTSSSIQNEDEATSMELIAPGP

Compound	inhibition at 10 µM
CS(=O)(=O)c1ccc([C@@H](O)[C@@H](CF)NC(=O)C(Cl)Cl)cc1 [Florfenicol]	77.5%
CN(C/C=C/c1ccccc1)Cc1cccc2ccccc12 [Naftifine hydrochloride]	96.1%
C1CCC(C(CC2CCCCN2)C2CCCCC2)CC1 (centres unmarked) [Perhexiline maleate]	79.2%
CN(C)CCCOc1nn(Cc2ccccc2)c2ccccc12 [Benzydamine hydrochloride]	83.6%
CCN(CC)CCOC(=O)C(c1ccccc1)c1ccccc1 [Adiphenine hydrochloride]	90.4%
CCCCNc1ccc(C(=O)OCCOCCOCCOCCOCCOCCOCCOCCOCCOC)cc1 [Benzonatate]	79.9%
CCCCc1cc2ccccc2c(OCCN(C)C)n1 [Dimethisoquin hydrochloride]	75.5%
COc1cc2nc(N3CCN(C(=O)C4COc5ccccc5O4)CC3)nc(N)c2cc1OC (centres unmarked) [Doxazosin mesylate]	76.1%
CC(C)(C)NC[C@H](O)c1ccc(O)c(CO)c1 [Levalbuterol hydrochloride]	85.3%
O=C(CCCN1CC=C(n2c(=O)[nH]c3ccccc32)CC1)c1ccc(F)cc1 [Droperidol]	87.6%
COc1ccc(C(=O)c2ccccc2O)c(O)c1 [Dioxybenzone]	100%
O=C(Nc1ccccc1)OCC(CN1CCCCC1)OC(=O)Nc1ccccc1 (centres unmarked) [Diperodon hydrochloride]	92.2%
NC(=O)OCC(COC(N)=O)c1ccccc1 [Felbamate]	78.6%
CCN(CC)C(C)CN1c2ccccc2Sc2ccccc21 (centres unmarked) [Ethopropazine hydrochloride]	85.5%
Cc1cccc(C)c1NC(=O)CN1CCN(CCCC(c2ccc(F)cc2)c2ccc(F)cc2)CC1 [Lidoflazine]	92.7%
CC(C)COCC(CN(Cc1ccccc1)c1ccccc1)N1CCCC1 (centres unmarked) [Bepridil hydrochloride]	89.1%
C[C@H](N)[C@H](O)c1ccc(O)c(O)c1 [Levonordefrin]	107%
CN1CCC(=C2c3ccccc3Sc3ccccc32)CC1 [Pimethixene maleate]	88.5%
CN1CCN(CCCN2c3ccccc3Sc3ccc(C(F)(F)F)cc32)CC1 [Trifluoperazine dihydrochloride]	79.1%
OC(CNCC(O)C1CCc2cc(F)ccc2O1)C1CCc2cc(F)ccc2O1 (centres unmarked) [Nebivolol hydrochloride]	82.7%

Compound	inhibition at 10 µM
CNCCC=C1c2ccccc2CCc2ccccc21 [Nortriptyline hydrochloride]	85.9%
CNCCCC1c2ccccc2C=Cc2ccccc21 [Protriptyline hydrochloride]	80%
CCCOc1ccc(C(=O)OCCN(CC)CC)cc1N [Proparacaine hydrochloride]	103%
CCC(COC(=O)c1cc(OC)c(OC)c(OC)c1)(c1ccccc1)N(C)C (centres unmarked) [Trimebutine]	88.7%
CC(C)(C)NC(=O)[C@@H]1C[C@@H]2CCCC[C@@H]2CN1C[C@@H](O)[C@H](Cc1ccccc1)NC(=O)[C@H](CC(N)=O)NC(=O)c1ccc2ccccc2n1 [Saquinavir mesylate]	92.8%
OCc1cc(C(O)CNCCCCCCOCCCCc2ccccc2)ccc1O (centres unmarked) [Salmeterol]	99.6%
CO[C@]12C[C@@H](COC(=O)c3cncc(Br)c3)CN(C)[C@@H]1Cc1cn(C)c3cccc2c13 [Nicergoline]	82.3%
CCc1nn(CCCN2CCN(c3cccc(Cl)c3)CC2)c(=O)n1CCOc1ccccc1 [Nefazodone hydrochloride]	88.5%
O=c1cc(-c2ccc(O)c(O)c2)oc2cc(O)cc(O)c12 [Luteolin]	86.2%
CCN(CC)CCOC(=O)C(c1ccccc1)C1CCCCC1 (centres unmarked) [Drofenine hydrochloride]	76.8%
CCCCCCNC(=O)n1cc(F)c(=O)[nH]c1=O [Carmofur]	124%
Fc1ccc(C(c2ccc(F)cc2)N2CCN(C/C=C/c3ccccc3)CC2)cc1 [Flunarizine dihydrochloride]	96.6%
CCCCOc1ccc(C(=O)CCN2CCCCC2)cc1 [Dyclonine hydrochloride]	99%
[H]/N=C(/NCCCCC)N/N=C/c1c[nH]c2ccc(OC)cc12 [Tegaserod maleate]	98.3%
COc1ccc(-c2cc(=S)ss2)cc1 [Anethole-trithione]	78.5%
CCC(=O)O[C@@](Cc1ccccc1)(c1ccccc1)[C@@H](C)CN(C)C [Levopropoxyphene napsylate]	95.1%
CN(C)CC/C=C1/c2ccccc2Sc2ccc(Cl)cc21 [Chlorprothixene hydrochloride]	77.4%
CC(COc1ccccc1)N(CCCl)Cc1ccccc1 (centres unmarked) [Phenoxybenzamine hydrochloride]	86.1%
CN(C(=O)CN(CCO)CC(=O)N(C)C(C)(C)Cc1ccccc1)C(C)(C)Cc1ccccc1 [Oxethazaine]	92.9%
CC(C)(C)NCC(O)c1ccc(O)c(CO)c1 (centres unmarked) [Salbutamol]	78%

Compound	inhibition at 10 µM
CCCCCCCCNC(C)C(O)c1ccc(SC(C)C)cc1 (centres unmarked) [Suloctidil]	93.8%
CCN(CC)CC#CCOC(=O)C(O)(c1ccccc1)C1CCCCC1 (centres unmarked) [Oxybutynin chloride]	77.3%
O=c1[nH]c2ccccc2n1C1CCN(CCCC(c2ccc(F)cc2)c2ccc(F)cc2)CC1 [Pimozide]	101%
CC(CN1c2ccccc2Sc2ccccc21)N(C)C (centres unmarked) [Promethazine hydrochloride]	78.5%
CC(NCCC(c1ccccc1)c1ccccc1)c1ccccc1 (centres unmarked) [Fendiline hydrochloride]	91.3%
C[C@]12CC[C@@H]3c4ccc(O)cc4CC[C@H]3[C@@H]1CCC2=O [Estrone]	78.2%
O=C(CCCN1CCC2(CC1)C(=O)NCN2c1ccccc1)c1ccc(F)cc1 [Spiperone]	82%
CCOC(=O)C1=C[C@]2(CC)CCCN3CCc4c(n1c1ccccc41)[C@@H]32 [Vinpocetine]	93.4%
CN(C)CCCN1c2ccccc2Sc2ccccc21 [Promazine hydrochloride]	88.1%
O=C(CCCN1CCC(n2c(O)nc3ccccc32)CC1)c1ccc(F)cc1 [Benperidol]	84.2%
CCOC(=O)Nc1ccc2c(c1)N(C(=O)CCN1CCOCC1)c1ccccc1S2 [Moricizine hydrochloride]	75.8%
CN(C)CCC=C1c2ccccc2COc2ccccc21 [Doxepin hydrochloride]	88.7%
COc1ccccc1OCCNCC(O)COc1cccc2[nH]c3ccccc3c12 (centres unmarked) [Carvedilol]	104%
CC(Cc1ccc(O)cc1)NCC(O)c1cc(O)cc(O)c1 (centres unmarked) [Fenoterol hydrobromide]	78.3%
O=C1[C@H]2CCCC[C@H]2C(=O)N1CCCCN1CCN(c2nsc3ccccc23)CC1 [Perospirone]	89.7%
CCCCOc1cc(C(=O)NCCN(CC)CC)c2ccccc2n1 [Dibucaine]	79.4%
CCCCOc1cc(C(=O)OCCN(CC)CC)ccc1N [Benoxinate hydrochloride]	83.7%
Cc1cccc(C)c1OCC(=O)N[C@@H](Cc1ccccc1)[C@@H](O)C[C@H](Cc1ccccc1)NC(=O)[C@H](C(C)C)N1CCCNC1=O [Lopinavir]	76.8%

Target: human KV7.1 (Homo sapiens, UniProt P51787)
Assay: KV7.1 86Rb+ efflux HTS
Type: cell-based
Details: 10 μM, n=2, CHO cells, 86Rb+ efflux, normalized to 10 μM chromanol 293B control

Sequence of human KV7.1 (P51787 whole entry): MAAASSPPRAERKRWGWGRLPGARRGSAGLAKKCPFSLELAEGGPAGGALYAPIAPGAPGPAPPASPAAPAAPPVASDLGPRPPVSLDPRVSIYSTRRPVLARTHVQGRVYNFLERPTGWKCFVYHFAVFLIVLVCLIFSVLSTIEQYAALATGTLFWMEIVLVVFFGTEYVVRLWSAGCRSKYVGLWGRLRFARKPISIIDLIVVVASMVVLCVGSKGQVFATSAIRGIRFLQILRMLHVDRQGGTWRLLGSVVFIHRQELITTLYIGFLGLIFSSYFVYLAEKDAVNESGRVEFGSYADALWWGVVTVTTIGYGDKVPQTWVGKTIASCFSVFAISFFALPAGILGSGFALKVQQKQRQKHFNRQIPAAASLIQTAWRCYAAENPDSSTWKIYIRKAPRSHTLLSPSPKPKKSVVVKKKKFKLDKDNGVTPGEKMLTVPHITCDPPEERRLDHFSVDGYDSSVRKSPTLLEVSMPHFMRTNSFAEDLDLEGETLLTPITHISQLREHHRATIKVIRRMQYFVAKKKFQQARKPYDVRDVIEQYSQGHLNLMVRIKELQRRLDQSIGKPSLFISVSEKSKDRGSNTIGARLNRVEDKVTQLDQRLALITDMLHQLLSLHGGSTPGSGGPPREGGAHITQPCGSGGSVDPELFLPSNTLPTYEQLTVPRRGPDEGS

Compound	Average percent inhibition at 10 μM (KCNQ1)
CN1CCCN(C(c2ccccc2)c2ccc(Cl)cc2)CC1.Cl.Cl (centres unmarked) [Homochlorcyclizine dihydrochloride]	43.5%
CN1CCN(C(c2ccccc2)c2ccccc2)CC1.Cl [Cyclizine hydrochloride]	45.9%
CC(=O)O[C@H]1CC[C@@]2(C)C(=CC[C@@H]3[C@@H]2CC[C@]2(C)C(=O)CC[C@@H]32)C1 [Dehydroisoandosterone 3-acetate]	52.9%
CCSc1ccc2c(c1)N(CCCN1CCN(C)CC1)c1ccccc1S2.O=C(O)CC(O)C(=O)O.O=C(O)CC(O)C(=O)O [Thiethylperazine dimalate]	56.9%

Same assay, conditions: CHO, read-out: Average percent inhibition at 10 μM (KCNQ1)

Compound	inhibition at 10 µM
Cc1cccc(N(C)C(=S)Oc2ccc3ccccc3c2)c1 [Tolnaftate]	69.4%
Fc1ccc([C@@H]2CCNC[C@H]2COc2ccc3c(c2)OCO3)cc1 [Paroxetine Hydrochloride]	59.9%
COC(=O)C1=C(C)NC(C)=C(C(=O)OCC(C)C)C1c1ccccc1[N+](=O)[O-] (centres unmarked) [Nisoldipine]	48%
CCOc1ccc(Cc2nccc3cc(OCC)c(OCC)cc23)cc1OCC [Ethaverine hydrochloride]	86.9%
COc1cccc(N(C)C(=S)Oc2ccc3c(c2)CCCC3)n1 [Liranaftate]	62.8%
COC1=C(OC)C(=O)C(CCCCCCCCCCO)=C(C)C1=O [Idebenone]	59%
C#C[C@]1(OC(C)=O)CC[C@H]2[C@@H]3CCC4=C[C@@H](OC(C)=O)CC[C@@H]4[C@H]3CC[C@@]21C [Ethynodiol diacetate]	88%
C[C@H](CCC(=O)O)[C@H]1CC[C@H]2[C@@H]3CC[C@@H]4C[C@H](O)CC[C@]4(C)[C@H]3CC[C@]12C [Lithocholic acid]	80.8%
Clc1ccc(COC(Cn2ccnc2)c2ccc(Cl)cc2Cl)c(Cl)c1 (centres unmarked) [Miconazole]	79.8%
CC(C)OC(=O)CCC/C=C\C[C@@H]1[C@@H](CC[C@@H](O)CCc2ccccc2)[C@H](O)C[C@@H]1O [Latanoprost]	63.7%
Clc1ccc(C(Cn2ccnc2)OCc2csc3c(Cl)cccc23)c(Cl)c1 (centres unmarked) [Sertaconazole nitrate]	58.6%
Clc1ccc(C(Cn2ccnc2)OCc2c(Cl)cccc2Cl)c(Cl)c1 (centres unmarked) [Isoconazole]	61.2%
NS(=O)(=O)c1cc2c(cc1Cl)NC(CC1CCCC1)NS2(=O)=O (centres unmarked) [Cyclopenthiazide]	68.3%
Clc1ccc(C(Cn2ccnc2)OCc2ccsc2Cl)c(Cl)c1 (centres unmarked) [Tioconazole]	53.5%
CC(C)OC(=O)C(C)(C)Oc1ccc(C(=O)c2ccc(Cl)cc2)cc1 [Fenofibrate]	64%
